In publication PMC6943582 (2019):

Columns and labels:
[1] = test system: NEO2A (RNA, aptamer) CACUGCAGUCCGAAAAGGGCCAGUG; assay: ITC; conditions: 13.5 mM NaCl, 150 mM KCl, 0.12 mM MgCl2, 0.1 mM MgSO4, 120 nM CaCl2, Buffer A: 20 mM HEPES, pH 7.3, 25 °C
[2] = test system: NEO2AΔA (RNA, aptamer) CACUGCAGUCCGAAAGGGCCAGUG; assay: ITC; conditions: 13.5 mM NaCl, 150 mM KCl, 0.12 mM MgCl2, 0.1 mM MgSO4, 120 nM CaCl2; Buffer A: 20 mM HEPES, phosphate, pH 7.3, 25 °C
[3] = test system: 2AP16NEO2A (RNA, aptamer, 2-aminopurine at 16) CACUGCAGUCCGAAAAGGGCCAGUG; assay: ITC; conditions: 13.5 mM NaCl, 150 mM KCl, 0.12 mM MgCl2, 0.1 mM MgSO4, 120 nM CaCl2; Buffer A, pH 7.3, 25 °C; affinity 40% of unsubstituted NEO2A
[4] = test system: 2AP7NEO2A (RNA, aptamer, 2-aminopurine at 7) CACUGCAGUCCGAAAAGGGCCAGUG; assay: 2-aminopurine fluorescence; conditions: buffer A or F; 10 μM ligand, 1 μM RNA; fluorescence increase
[5] = test system: 2AP13NEO2A (RNA, aptamer, 2-aminopurine at 13) CACUGCAGUCCGAAAAGGGCCAGUG; assay: 2-aminopurine fluorescence; conditions: buffer A or F; 10 μM ligand, 1 μM RNA; fluorescence increase
[6] = test system: 2AP14NEO2A (RNA, aptamer, 2-aminopurine at 14) CACUGCAGUCCGAAAAGGGCCAGUG; assay: 2-aminopurine fluorescence; conditions: buffer A or F; 10 μM ligand, 1 μM RNA; fluorescence decrease

Row | Structure (SMILES) | Kd ([1]; phosphate) | Kd [2] | other results
1 | CCN[C@@H]1C[C@H](N)[C@@H](O[C@H]2OC(CN)=CC[C@H]2N)[C@H](O)[C@H]1O[C@H]1OC[C@](C)(O)[C@H](NC)[C@H]1O | > 100 µM | – | –
2 | CN[C@@H]1[C@@H](O)[C@@H](O[C@@H]2[C@@H](O)[C@H](O[C@H]3O[C@H]([C@@H](C)O)[C@@H](O)[C@H](O)[C@H]3N)[C@@H](N)C[C@H]2N)OC[C@]1(C)O | > 100 µM | – | –
3 | NCC[C@H](O)C(=O)N[C@@H]1C[C@H](N)[C@@H](O[C@H]2O[C@H](CN)[C@@H](O)[C@H](O)[C@H]2O)[C@H](O)[C@H]1O[C@H]1O[C@H](CO)[C@@H](O)[C@H](N)[C@H]1O | > 100 µM | – | –
4 | NC[C@H]1O[C@H](O[C@H]2[C@H](O)[C@@H](O[C@H]3O[C@H](CO)[C@@H](O)[C@H](N)[C@H]3O)[C@H](N)C[C@@H]2N)[C@H](N)C[C@@H]1O | 0.40 ± 0.051 µM | 6.3 ± 0.84 µM | –
5 | CN[C@@H]1[C@@H](O)[C@@H](O[C@@H]2[C@@H](O)[C@H](O[C@H]3OC(CN)=CC[C@H]3N)[C@@H](N)C[C@H]2N)OC[C@]1(C)O | 4.9 ± 1.2 µM | 4.9 ± 1.0 µM | –
6 | NC[C@@H]1O[C@H](O[C@H]2[C@@H](O)[C@H](O[C@@H]3[C@@H](O)[C@H](N)C[C@H](N)[C@H]3O[C@H]3O[C@H](CN)[C@@H](O)[C@H](O)[C@H]3N)O[C@@H]2CO)[C@H](N)[C@@H](O)[C@@H]1O | 0.25 ± 0.050 µM | 0.17 ± 0.031 µM | binding [3]: yes; binding [4]: yes; binding [5]: yes; binding [6]: yes
7 | NC[C@H]1O[C@H](O[C@H]2[C@H](O[C@@H]3O[C@H](CO)[C@@H](O)[C@H]3O)[C@@H](O)[C@H](N)C[C@@H]2N)[C@H](N)[C@@H](O)[C@@H]1O | – | 2.3 ± 0.0015 µM | Kd ([1]; Table S4 prints 0.4 ± 0.075): 0.28 ± 0.066 µM
8 | NC[C@H]1O[C@H](O[C@H]2[C@H](O)[C@@H](O[C@H]3O[C@H](CO)[C@@H](O)[C@H](N)[C@H]3O)[C@H](N)C[C@@H]2N)[C@H](O)[C@@H](O)[C@@H]1O | 26 ± 3.0 µM | – | –
9 | NC[C@@H]1O[C@H](O[C@H]2[C@@H](O)[C@H](O[C@@H]3[C@@H](O)[C@H](N)C[C@H](N)[C@H]3O[C@H]3O[C@H](CO)[C@@H](O)[C@H](O)[C@H]3N)O[C@@H]2CO)[C@H](N)[C@@H](O)[C@@H]1O | 1.6 ± 0.26 µM | – | binding [2]: no
10 | NC[C@H]1O[C@H](O[C@H]2[C@H](O)[C@@H](O[C@H]3O[C@H](CO)[C@@H](O)[C@H](N)[C@H]3O)[C@H](N)C[C@@H]2N)[C@H](N)[C@@H](O)[C@@H]1O | 0.25 ± 0.073 µM | – | –
